Results published in US5391549A, “Cinnoline-3-carboxylic acid derivatives” (Mitsubishi Kasei Corporation, priority 1992, dated 1995).
Structures can show the parent of a compound that is named as a salt.

What follows are compounds tested against T1, 5-HT3 receptor (Rattus norvegicus, UniProt P35563) (assay: Inhibitory effect on the Bezold-Jarish's reflex induced in anesthetized rats with 5-HT (5HT3 receptor antagonistic effect)). Settings: iv, i.v. test compound, 5-HT 8 μg/kg i.v., urethane-anesthetized male Wister rats, dose giving 50% inhibition, read-out: B-J Reflex Inhibition (ID50).
T1 construct: from tissue; host or cells: whole living rat (male Wistar, urethane-anesthetized); endogenous receptor
T1 sequence (P35563 24-483): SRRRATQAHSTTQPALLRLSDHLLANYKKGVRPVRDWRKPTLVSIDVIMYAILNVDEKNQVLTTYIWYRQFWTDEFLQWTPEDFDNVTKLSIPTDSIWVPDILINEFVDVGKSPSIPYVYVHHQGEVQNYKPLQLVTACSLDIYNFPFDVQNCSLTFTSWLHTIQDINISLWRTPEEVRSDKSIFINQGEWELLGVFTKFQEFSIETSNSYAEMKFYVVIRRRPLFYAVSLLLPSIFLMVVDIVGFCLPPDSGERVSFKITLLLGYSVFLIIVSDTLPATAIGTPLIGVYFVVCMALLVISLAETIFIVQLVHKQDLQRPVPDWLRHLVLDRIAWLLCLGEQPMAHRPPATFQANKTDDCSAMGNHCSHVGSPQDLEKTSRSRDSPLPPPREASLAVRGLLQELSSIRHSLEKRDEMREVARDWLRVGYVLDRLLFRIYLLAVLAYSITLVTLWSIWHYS
Type: in vivo, rat (male Wister strain)
Procedure: 1) 5HT3 Receptor Antagonistic Effect
The antagonistic activity of the compounds of the invention to 5-HT3 receptor was evaluated as to the inhibitory effect on the Bezold-Jarish's reflex induced in anesthetized rats with 5-HT as follows.
Male Wister strain rats (300-400 g weight) were anesthetized by peritoneal injection of urethane (1.25 g/kg) and the heart rate was monitored from an electrocardiograph. Rats were intravenously injected with physiological saline (0.5 ml/kg) and 5-HT (8 μg/kg) solution (0.5 ml/kg) in physiological saline at five minutes interval and the change in the heart rate was recorded (A). Another group of rats were intravenously injected with a test compound and 5-HT solution in the same manner as the above at five minutes interval and the change in the heart rate was recorded (B). The percent inhibition of 5-HT-induced Bezold-Jarish's reflex was calculated as follows.
Inhibition (%)=(1-B/A)×100
In the Table, ID50 is a dose of a compound (I) of the invention which gives a 50% inhibition. The compound number in Table 4 correspond to those in Tables 1-3.

Point of comparison: `CCCn1nc(C(=O)NC2CC3CCC(C2)N3C)c(=O)c2ccccc21` (stereo not drawn) [Compound 86, N-(endo-8-methyl-8-azabicyclo[3.2.1]oct-3-yl)-1-propyl-1,4-dihydro-4-oxocinnoline-3-carboxamide hydrochloride], ED50 0.15 µg/kg. Against it:
- CCn1nc(C(=O)NC2CC3CCC(C2)N3C)c(=O)c2ccccc21 (stereo not drawn) [Compound 76, N-(endo-8-methyl-8-azabicyclo[3.2.1]oct-3yl)-1-ethyl-1,4-dihydro-4-oxocinnoline-3-carboxamide hydrochloride] — 2-fold higher, 0.3 µg/kg
- CCCn1nc(C(=O)NC2CC3CCC(C2)N3C)c(=O)c2cccc(F)c21 (stereo not drawn) [Compound 102, 8-Fluoro-N-(endo-8-methyl-8-azabicyclo[3.2.1]oct-3-yl)-1-propyl-1,4-dihydro-4-oxocinnoline-3-carboxamide hydrochloride] — within 1.5-fold, 0.2 µg/kg
